Experimental data from US20070157931A1, “System and method for optimized delivery of an aerosol to the respiratory tract” (priority 2005, published 2007).

What was measured:
Assay type in all cases: in vivo
[1] = Wasted fraction of continuously delivered radioaerosol in ventilated sheep, expiratory filter gamma counting; settings: continuous zero flow nebulizer
Protocol: This study was designed to compare the wasted fraction of ^99mTc-DTPA aerosols delivered continuously with the zero flow nebulizer to control sheep (n=6) and sheep administered 2 mg/kg E. coli endotoxin. This dose of endotoxin in sheep causes a period of intense bronchoconstriction and pulmonary vasoconstriction followed by pulmonary edema. The experimental setup was similar to that illustrated in FIG. 15, except that no scintillation probe was used and isotope waste was measured by counting radioactivity in a filter placed in the expiratory portion of the ventilator tubing using a gamma energy counter. The wasted fraction of aerosol was more than 3-fold higher during endotoxin-induced lung injury with endotoxin [3,836,141 (n=1)] than when the lungs were normal [1,289,102±125,326 (n=6)].

[2] = Aerosol deposition and clearance of radiotracers in lungs of ventilated sheep (Hawkeye imaging, gamma counting of lung tissue); settings: Hi-Flo MiniHeart nebulizer
Protocol: The present study was designed to assess aerosol deposition patterns using jet nebulizers and the device of the present disclosure. These studies were conducted in the Vanderbilt University Medical Center Hawkeye scanning facility. Each sheep was surgically instrumented with catheters in a jugular vein and a carotid artery. After allowing several days for the sheep to recuperate from surgery, they were anesthetized, intubated, ventilated, and placed on the GE Hawkeye scanner bed. […] The contents of the syringe were then added to a nebulizer and aerosols generated for 30 minutes during ventilator-assisted inspiration. Planar images were taken every two minutes with anterior and posterior cameras. Nebulization was then halted, and clearance of the radiotracers over two hours was measured with Hawkeye in an identical manner. At the end of the radioisotope clearance image acquisition, a rotational CT image was taken of the sheep thoracic cavity to delineate lung boundaries and chest anatomy. The sheep was sacrificed and its lungs excised. Lungs were placed on grid paper and diced with a rectangular cutting grid. Lung tissue was placed in plastic vials and gamma energy emissions of each isotope measured with a gamma counter.

[3] = test system: anesthetized sheep; experiment: Bronchoconstriction produced by sodium arachidonate aerosol in anesthetized ventilated sheep; settings: aerosolized, dose 1.5 grams/50 ml typically diluted 1:3
Protocol: In anesthetized sheep with either normal lung mechanics or during bronchoconstriction, the effects of phasic aerosol delivery on the amount of radioisotope deposited in the lungs and the amount expired (as collected in a waste filter) were tested. Results were compared to those in which aerosol was delivered continuously. Sheep were anesthetized and ventilated with oxygen-enriched air at a tidal volume of 500 ml and a respiratory rate of 10 breaths per minute. The ventilator setup is illustrated schematically in FIG. 15.
FIGS. 16-18 also illustrate effects of bronchoconstriction produced by an aerosol of sodium arachidonate on aerosol delivery efficiency. These studies were conducted after the control studies discussed above. Arachidonic acid was converted to sodium arachidonate by the procedure of Ogletree and Brigham and was aerosolized (Dose=1.5 grams/50 ml typically diluted 1:3) to cause marked bronchoconstriction and/or decreased lung compliance and thus elevated airway pressure. […] During bronchoconstriction, ^99mTc-DTPA was administered by phasic aerosol delivery while maintaining the arachidonate delivery. […]

O=C([O-])CN(CCN(CC(=O)[O-])CC(=O)[O-])CCN(CC(=O)[O-])CC(=O)[O-].[99Tc+4] [99mTc-DTPA]
wasted fraction, endotoxin-induced lung injury versus normal lungs [1]: more than 3 fold
wasted fraction of aerosol (radioactivity in expiratory filter) ([1]; endotoxin-induced lung injury, 2 mg/kg E. coli endotoxin, n=1): 3,836,141
wasted fraction of aerosol (radioactivity in expiratory filter) ([1]; normal lungs, control sheep, n=6): 1,289,102±125,326
tracer remaining in lungs after halting aerosol generation ([2]; 2 hours after halting aerosol generation): much of the tracer remained
radioisotope distribution in lung tissue ([2]; gamma counting of lung tissue samples): higher dorsal (towards back) and caudal (towards tail) deposition

CCCCC/C=C\C/C=C\C/C=C\C/C=C\CCCC(=O)[O-].[Na+] [sodium arachidonate]
hypoxemia during bronchoconstriction [3]: marked hypoxemia
airway pressure during bronchoconstriction ([3]; within 20 minutes): 48-50 cm H2O
